Experimental data from patent publication US12503506B2, “Dual drug antibody-drug conjugates” (priority 2019, dated 2025).

Key:
[1] = test system: Namalwa wild type cells; experiment: MTT cytotoxicity assay in Namalwa wild type cells; assay type: cell-based; conditions: 72 h incubation, read-out: IC50 (cytotoxicity, cell viability by MTT)
Experimental: (§1) Namalwa 21 nM VCR (multidrug-resistant cells by exposure to vincristine (21 nM), and Namalwa wild type (ATCC CRL-1432) cells were cultured in ATCC-formulated RPMI-1640 medium with L-glutamine (2 mM), sodium bicarbonate (1.5 g L-1), glucose (4.5 g L^−1), HEPES (10 mM) and sodium pyruvate (1.0 mM). The media was supplemented with penicillin (100 U mL^−1) and streptomycin (100 μg mL^−1, Mediatech) and fetal bovine serum (FBS, 10%, BenchMark). Cells were maintained in a humid 5% CO2 atmosphere at 37° C. and subcultured every 2-3 days.
(§2) Cytotoxicity of PCTX and compounds 2, 2& 10, 15 and 17 was determined using the MTT assay. On the day of exposure, exponentially growing cells were plated at 25,000 cells/well in 160 μL in 96-well tissue culture plates (Nunc). Cells were then incubated with medium (control) or compounds (20 μL, 10× in cell culture medium) at the indicated final concentrations (0.1-1000 nM). At 68 h, MTT reagent (5 mg mL^−1 in PBS, 20 μL/well) was added to each well. The plate was further incubated at 37° C. At 72 h the plate was centrifuged at 1400 rpm for 10 min at 4° C. and supernatants were carefully removed. DMSO (100 μL/well) was added to dissolve the water-insoluble formazan salt. The absorbance was measured at 545 nm using a microplate reader (BMG Labtech). Data points were collected in triplicate and expressed as normalized values for untreated control cells (100%). […]

[2] = test system: multidrug-resistant Namalwa cell line (MDR+ve); experiment: MTT cytotoxicity assay in multidrug-resistant Namalwa cells; assay type: cell-based; conditions: 72 h
Experimental: as §1, §2

| Structure (SMILES) | IC50 [1] | activity (cytotoxicity) in MDR+ve cell line [2] |
| --- | --- | --- |
| CC(=O)O[C@H]1C(=O)[C@]2(C)[C@@H](O)CC3OC[C@@]3(OC(C)=O)[C@H]2[C@H](OC(=O)c2ccccc2)[C@]2(O)C[C@H](OC(=O)[C@H](OC(=O)CCC(=O)NCCOCCOCCNC(=O)OCC3C4CCC#CCCC43)[C@@H](NC(=O)c3ccccc3)c3ccccc3)C(C)=C1C2(C)C (stereo partly drawn) [Compound 2, (4S,4aS,6R,9S,11S,12S,12aR,12bS)-9-(((19R)-19-((S)-benzamido(phenyl)methyl)-1-(bicyclo[6.1.0]non-4-yn-9-yl)-3,14,17-trioxo-2,7,10,18-tetraoxa-4,13-diazaicosan-20-oyl)oxy)-12-(benzoyloxy)-4,11-dihydroxy-4a,8,13,13-tetramethyl-5-oxo-3,4,4a,5,6,9,10,11,12,12a-decahydro-1H-7,11-methanocyclodeca[3,4]benzo[1,2-b]oxete-6,12b(2aH)-diyl diacetate] | 26 nM | no appreciable activity |
| CC(=O)O[C@H]1C(=O)[C@@]2(C)[C@H]([C@H](OC(=O)c3ccccc3)[C@]3(O)C[C@H](OC(=O)[C@H](O)[C@@H](NC(=O)c4ccccc4)c4ccccc4)C(C)=C1C3(C)C)[C@]1(OC(C)=O)CO[C@@H]1C[C@@H]2O [PCTX, Paclitaxel, reference compound] | 2 nM | – |
